Results reported in patent US20020151591A1, “Combination use of acetylcholinesterase inhibitors and GABAa inverse agonists for the treatment of cognitive disorders” (priority 2000, published 2002).

Tested on: scopolamine-induced retention deficit in male Sprague Dawley rats
Assay: Scopolamine-induced memory deficit in the spatial water maze task
Format: in vivo, rat
Conditions: IV 5 minutes prior to scopolamine 0.125 mg/kg IP; sub-efficacious doses; retention tested one day after training; Fisher LSD p<0.05 vs PEG/scopolamine
Procedure: Subjects: Animals used in these studies were naive male Sprague Dawley rats (SASCO St. Louis) weighing between 200-250 grams. Animals were housed in groups of three in a temperature (22° C.[…]) and humidity (40-70% relative humidity) controlled vivarium with a 12-hour light/dark cycle. Animals had ad lib access to food and water.
Drugs: Aricept and said compound of Formula I were each dissolved in 50% polyethylene glycol (PEG), and scopolamine HCI (Sigma) was dissolved in 0.9% saline. Aricept and said compound of Formula I (alone or in combination) or 50% PEG was administered intravenously (IV) 5 minutes prior to scopolamine (0.125 mg/kg) or saline given intraperitoneally (IP). Training commenced 15 minutes after the IP injection. […]
Procedure: An animal was initially placed on the platform in the tank for 20 seconds. […] For each trial during acquisition and retention, a computerized video tracking system recorded the latency (sec) to reach the submerged platform the total distance traveled (m) in the water maze, the number of zone (quadrant) transitions made, and the swim speed of the animal.
Data Analysis: A one-way ANOVA was conducted on the latency to locate the platform during retention testing. Tests for significant differences between individual treatment groups were assessed using a Fisher LSD test (p<0.05).

COc1cc2c(cc1OC)C(=O)C(CC1CCN(Cc3ccccc3)CC1)C2 (stereo not shown) [Aricept, donepezil]
attenuation of scopolamine-induced retention deficit (latency to locate the platform during retention testing): did not significantly attenuate
